Experimental data as given in ChEMBL document CHEMBL2375302, “Synthesis, antimicrobial, antiquorum-sensing, antitumor and cytotoxic activities of new series of fused [1,3,4]thiadiazoles” (Eur J Med Chem, 2013).

How the values were obtained:
[1] = tested on: IGROV-1; test: Growth inhibition of human IGROV1 cells at 10 uM after 48 hrs by coulter counter analysis relative to control; type: functional; details: IGROV-1, 48 h, read-out: GI
[2] = tested on: SNB-75; test: Growth inhibition of human SNB75 cells at 10 uM after 48 hrs by coulter counter analysis relative to control; type: functional; details: SNB-75, 48 h, read-out: GI
[3] = tested on: ACHN; test: Growth inhibition of human ACHN cells at 10 uM after 48 hrs by coulter counter analysis relative to control; type: functional; details: read-out: GI
[4] = tested on: SK-MEL-28; test: Growth inhibition of human SK-MEL-28 cells at 10 uM after 48 hrs by coulter counter analysis relative to control; type: functional; details: SK-MEL-28, 48 h, read-out: GI
[5] = tested on: LOX IMVI; test: Growth inhibition of human LOXIMVI cells at 10 uM after 48 hrs by coulter counter analysis relative to control; type: functional; details: read-out: GI
[6] = tested on: UO-31; test: Growth inhibition of human UO31 cells at 10 uM after 48 hrs by coulter counter analysis relative to control; type: functional; details: UO-31, 48 h, read-out: GI
[7] = tested on: K562; test: Growth inhibition of human K562 cells at 10 uM after 48 hrs by coulter counter analysis relative to control; type: functional; details: K562, 48 h, read-out: GI
[8] = tested on: Aspergillus flavus; test: Antifungal activity against Aspergillus flavus 3372 at 5 mg/mL after 48 hrs; type: functional; details: Aspergillus flavus, 3372, 48 h; read-out: DIZ
[9] = tested on: SF-268; test: Growth inhibition of human SF268 cells at 10 uM after 48 hrs by coulter counter analysis relative to control; type: functional; details: SF-268, 48 h, read-out: GI
[10] = tested on: SF-295; test: Growth inhibition of human SF295 cells at 10 uM after 48 hrs by coulter counter analysis relative to control; type: functional; details: SF-295, 48 h, read-out: GI
[11] = tested on: 786-0; test: Growth inhibition of human 786-0 cells at 10 uM after 48 hrs by coulter counter analysis relative to control; type: functional; details: 786-0, 48 h, read-out: GI
[12] = tested on: MOLT-4; test: Growth inhibition of human MOLT4 cells at 10 uM after 48 hrs by coulter counter analysis relative to control; type: functional; details: MOLT-4, 48 h, read-out: GI
[13] = tested on: Hs-578T; test: Growth inhibition of human Hs578T cells at 10 uM after 48 hrs by coulter counter analysis relative to control; type: functional; details: read-out: GI
[14] = tested on: COLO 205; test: Growth inhibition of human COLO205 cells at 10 uM after 48 hrs by coulter counter analysis relative to control; type: functional; details: COLO 205, 48 h, read-out: GI
[15] = tested on: SF-539; test: Growth inhibition of human SF539 cells at 10 uM after 48 hrs by coulter counter analysis relative to control; type: functional; details: SF-539, 48 h, read-out: GI
[16] = tested on: MDA-MB-435; test: Growth inhibition of human MDA-MB-435 cells at 10 uM after 48 hrs by coulter counter analysis relative to control; type: functional; details: MDA-MB-435, 48 h, read-out: GI
[17] = Growth inhibition of human EKVX cells at 10 uM after 48 hrs by coulter counter analysis relative to control; type: functional; details: read-out: GI
[18] = tested on: TK-10; test: Growth inhibition of human TK10 cells at 10 uM after 48 hrs by coulter counter analysis relative to control; type: functional; details: TK-10, 48 h, read-out: GI
[19] = tested on: NCI-H460; test: Growth inhibition of human NCI-H460 cells at 10 uM after 48 hrs by coulter counter analysis relative to control; type: functional; details: NCI-H460, 48 h, read-out: GI
[20] = tested on: CAKI-1; test: Growth inhibition of human CAKI-1 cells at 10 uM after 48 hrs by coulter counter analysis relative to control; type: functional; details: CAKI-1, 48 h, read-out: GI
[21] = Toxicity against brine shrimp larvae assessed as mortality at 1000 ug/mL after 24 hrs by binocular microscopic analysis relative to control; type: organism-based; details: artemia salina, in vivo
[22] = tested on: RXF 393; test: Growth inhibition of human RXF393 cells at 10 uM after 48 hrs by coulter counter analysis relative to control; type: functional; details: RXF 393, 48 h, read-out: GI
[23] = tested on: Aspergillus fumigatus; test: Antifungal activity against Aspergillus fumigatus Af293 at 5 mg/mL after 48 hrs; type: functional; details: Af293, 48 h, read-out: DIZ
[24] = tested on: MDA-MB-468; test: Growth inhibition of human MDA-MB-468 cells at 10 uM after 48 hrs by coulter counter analysis relative to control; type: functional; details: MDA-MB-468, 48 h, read-out: GI
[25] = tested on: SK-OV-3; test: Growth inhibition of human SKOV3 cells at 10 uM after 48 hrs by coulter counter analysis relative to control; type: functional; details: SK-OV-3, 48 h, read-out: GI
[26] = tested on: NCI-H522; test: Growth inhibition of human NCI-H522 cells at 10 uM after 48 hrs by coulter counter analysis relative to control; type: functional; details: NCI-H522, 48 h, read-out: GI
[27] = tested on: A549; test: Growth inhibition of human A549 cells at 10 uM after 48 hrs by coulter counter analysis relative to control; type: functional; details: A549, 48 h, read-out: GI
[28] = tested on: Malme-3M; test: Growth inhibition of human MALME-3M cells at 10 uM after 48 hrs by coulter counter analysis relative to control; type: functional; details: read-out: GI
[29] = tested on: SR; test: Growth inhibition of human SR cells at 10 uM after 48 hrs by coulter counter analysis relative to control; type: functional; details: read-out: GI
[30] = tested on: OVCAR-3; test: Growth inhibition of human OVCAR3 cells at 10 uM after 48 hrs by coulter counter analysis relative to control; type: functional; details: OVCAR-3, 48 h, read-out: GI
[31] = tested on: SK-MEL-5; test: Growth inhibition of human SK-MEL-5 cells at 10 uM after 48 hrs by coulter counter analysis relative to control; type: functional; details: SK-MEL-5, 48 h, read-out: GI
[32] = tested on: BT-549; test: Growth inhibition of human BT549 cells at 10 uM after 48 hrs by coulter counter analysis relative to control; type: functional; details: BT-549, 48 h, read-out: GI
[33] = tested on: SNB-19; test: Growth inhibition of human SNB19 cells at 10 uM after 48 hrs by coulter counter analysis relative to control; type: functional; details: SNB-19, 48 h, read-out: GI
[34] = tested on: OVCAR-5; test: Growth inhibition of human OVCAR5 cells at 10 uM after 48 hrs by coulter counter analysis relative to control; type: functional; details: OVCAR-5, 48 h, read-out: GI
[35] = tested on: DU-145; test: Growth inhibition of human DU145 cells at 10 uM after 48 hrs by coulter counter analysis relative to control; type: functional; details: DU-145, 48 h, read-out: GI
[36] = tested on: NCI-H23; test: Growth inhibition of human NCI-H23 cells at 10 uM after 48 hrs by coulter counter analysis relative to control; type: functional; details: NCI-H23, 48 h, read-out: GI
[37] = Growth inhibition of human HCC2998 cells at 10 uM after 48 hrs by coulter counter analysis relative to control; type: functional; details: HCC 2998, 48 h, read-out: GI
[38] = Toxicity against brine shrimp larvae assessed as mortality at 10 ug/mL after 24 hrs by binocular microscopic analysis relative to control; type: organism-based; details: artemia salina, in vivo

Row | Compound | inhibition of growth at 10 µM [1] | inhibition of growth at 10 µM [2] | inhibition of growth at 10 µM [3] | inhibition of growth at 10 µM [4] | inhibition of growth at 10 µM [5] | inhibition of growth at 10 µM [6] | inhibition of growth at 10 µM [7] | zone of inhibition at 5000 µg/mL [8] | inhibition of growth at 10 µM [9] | inhibition of growth at 10 µM [10] | inhibition of growth at 10 µM [11] | inhibition of growth at 10 µM [12] | inhibition of growth at 10 µM [13] | inhibition of growth at 10 µM [14] | inhibition of growth at 10 µM [15] | inhibition of growth at 10 µM [16] | inhibition of growth at 10 µM [17] | inhibition of growth at 10 µM [18] | inhibition of growth at 10 µM [19] | inhibition of growth at 10 µM [20] | also measured
1 | N#Cc1cnc2sc(S(N)(=O)=O)nn2c1=O | < 10% | 10.3% | < 10% | < 10% | 10.7% | 10.5% | < 10% | < 2 mm | < 10% | < 10% | < 10% | < 10% | 12.8% | < 10% | < 10% | < 10% | < 10% | < 10% | < 10% | < 10% | mortality at 24 h, 1000 ug/mL [21]: 96.6%; inhibition of growth at 10 µM [22]: < 10%; zone of inhibition at 5000 µg/mL [23]: < 2 mm; inhibition of growth at 10 µM [24]: < 10%; inhibition of growth at 10 µM [25]: < 10%; inhibition of growth at 10 µM [26]: < 10%; inhibition of growth at 10 µM [27]: < 10%; inhibition of growth at 10 µM [28]: 28%; inhibition of growth at 10 µM [29]: < 10%; inhibition of growth at 10 µM [30]: < 10%; inhibition of growth at 10 µM [31]: < 10%; inhibition of growth at 10 µM [32]: < 10%; inhibition of growth at 10 µM [33]: < 10%; inhibition of growth at 10 µM [34]: < 10%; inhibition of growth at 10 µM [35]: < 10%; inhibition of growth at 10 µM [36]: < 10%; inhibition of growth at 10 µM [37]: < 10%; mortality at 24 h, 10 ug/mL [38]: 50%
2 | N#Cc1cnc2sc(S(N)(=O)=O)nn2c1=N | < 10% | < 10% | < 10% | < 10% | 15.1% | < 10% | < 10% | < 2 mm | < 10% | < 10% | < 10% | < 10% | < 10% | < 10% | < 10% | < 10% | < 10% | < 10% | < 10% | 11.5% | mortality at 24 h, 1000 ug/mL [21]: 96.6%; inhibition of growth at 10 µM [22]: < 10%; zone of inhibition at 5000 µg/mL [23]: < 2 mm; inhibition of growth at 10 µM [24]: < 10%; inhibition of growth at 10 µM [25]: < 10%; inhibition of growth at 10 µM [26]: < 10%; inhibition of growth at 10 µM [27]: < 10%; inhibition of growth at 10 µM [28]: < 10%; inhibition of growth at 10 µM [29]: < 10%; inhibition of growth at 10 µM [30]: < 10%; inhibition of growth at 10 µM [31]: < 10%; inhibition of growth at 10 µM [32]: < 10%; inhibition of growth at 10 µM [33]: < 10%; inhibition of growth at 10 µM [34]: < 10%; inhibition of growth at 10 µM [35]: < 10%; inhibition of growth at 10 µM [36]: < 10%; inhibition of growth at 10 µM [37]: < 10%; mortality at 24 h, 10 ug/mL [38]: 73.3%
